“Also recorded” adds a separate entry of the source. Where two headings read alike, the source gives them in different places.
What was measured:
[1] = target: T1, T. foetus HGXPRT (Tritrichomonas foetus, UniProt P51900); assay: Spectrophotometric enzyme assay, recombinant T. foetus HGXPRT; type: biochemical; conditions: for increase in affinity for T. foetus HGXPRT (lower IC50) compared to compound Ia(1): relative to compound Ia(1); for potency of combined 2-methyl / benzyl-substituted inhibitors relative to parent inhibitors: compared with Ia(4), Ia(5), Ia(6)
T1 construct: made in house; host or cells: E. coli strain SØ606 transformed with pBTfprt
T1 sequence (P51900 1-183): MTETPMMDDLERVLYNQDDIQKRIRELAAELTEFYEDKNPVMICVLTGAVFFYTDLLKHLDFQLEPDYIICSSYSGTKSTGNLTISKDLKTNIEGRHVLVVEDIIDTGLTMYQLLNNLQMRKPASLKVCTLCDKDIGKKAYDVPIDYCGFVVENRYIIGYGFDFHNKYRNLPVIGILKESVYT
Method: (§1) Enzyme Assays: Recombinant T. foetus HGXPRT and human HGPRT were isolated from E. coli strain S.O slashed.606, transformed with pBTfprt and pBAcprt expression plasmids, respectively (Chin, et al., Mol. Biochem. Parasitol. 63:221-229 (1994); Kanaaneh, et al., Eur. J. Biochem. 223:595-601 (1994)). Spectrophotometric enzyme assays were performed as described in Yuan, et al., Biochemistry 31:806-810 (1992). The compounds tested were dissolved in DMSO-d6, and concentrations were determined by integration of NMR peaks with methylene chloride as an internal standard. The concentration of DMSO in the assays was kept at 10%.

[2] = test system: T. foetus strain kv1 trophozoites; assay: Cell culture assay, in vitro growth of T. foetus; type: cell-based, Tritrichomonas foetus; conditions: for IC50: Tritrichomonas foetus
Method: Cell Culture Assays: T. foetus strain kv1 trophozoites were cultivated in Diamond's TYM medium at 37° C. Cell densities in time samples were determined using a hemocytometer. The concentration of DMSO in culture medium was maintained at or below 1%, which had no apparent effect on cell growth.
Indeed, compound Ia(5)-induced inhibition of T. foetus growth was reversed by increasing the concentration of hypoxanthine in the growth medium. A minimum hypoxanthine concentration between 0.2 and 0.5 mM was required for the survival of the cells challenged with 5 μM of compound Ia(5). Hypoxanthine at concentrations>1 mM essentially abolished any inhibition of cell proliferation under these experimental conditions.

[3] = target: T2, human HGPRT (Homo sapiens, UniProt P00492); assay: Spectrophotometric enzyme assay, recombinant human HGPRT; type: biochemical; conditions: for IC50: Table 2, read-out: IC50, Human HGXPRT; for selectivity for T. foetus HGXPRT over human HGPRT: ratio of human HGPRT to T. foetus HGXPRT inhibition
T2 construct: made in house; host or cells: E. coli strain SØ606 transformed with pBAcprt
T2 sequence (P00492 1-218): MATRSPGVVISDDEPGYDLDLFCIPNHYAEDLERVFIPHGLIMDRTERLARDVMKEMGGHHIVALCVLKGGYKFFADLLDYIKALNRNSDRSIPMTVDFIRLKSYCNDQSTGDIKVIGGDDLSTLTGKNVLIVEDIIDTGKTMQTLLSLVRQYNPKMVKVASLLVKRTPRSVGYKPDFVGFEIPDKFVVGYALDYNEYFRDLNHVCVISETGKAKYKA
Method: as §1

[4] = Table 1, Diamond's TYM medium, 37° C., DMSO at or below 1%, read-out: ED50, in vitro growth of T. foetus
[5] = read-out: IC50 values, T. foetus HGXPRT
[6] = Table 1, 10% DMSO, read-out: IC50, Inhibition of T. foetus HGXPRT

## O=C(Nc1ccc(Cl)c(Cl)c1)c1ccc2c(c1)C(=O)NC2=O [(4'-phthalimido)carboxamido-3,4-dichlorobenzene, reference compound]
[1]; comparison of the phthalimide with its phthalic anhydride analog
  activity on HGXPRT compared with 5-[N-(3,4-dichlorophenyl)carbamoyl]-1,3-isobenzofurandione: equally active

## O=C(Nc1cccc(OCc2ccccc2)c1)c1ccc2c(c1)C(=O)NC2=O [Compound Ia(1)]
[2]; [4]
  IC50: 19 µM
[1]; [5]
  IC50: 16 µM

## O=C(Nc1cccc(OCc2ccc(Br)cc2)c1)c1ccc2c(c1)C(=O)NC2=O [Compound Ia(5), (4'-phthalimido)carboxamido-3-(4-bromobenzyloxy)-benzene]
[3]
  IC50: 45 µM
  selectivity for T. foetus HGXPRT over human HGPRT: 30 fold
[2]
  concentration dependence of inhibition of T. foetus growth in culture: concentration-dependent
[2]; read-out: ED50, growth of cultured T. foetus cells
  IC50: 2.8 µM
[2]; cells challenged with 5 μM of compound
  hypoxanthine concentration that essentially abolished any inhibition of cell proliferation: > 1 mM
[2]; increasing hypoxanthine in the growth medium
  reversal of growth inhibition by exogenous hypoxanthine: reversed
[1]; [6]
  IC50: 1.5 µM
[1]; competitive with respect to guanine, read-out: K (inhibition constant) with respect to guanine, T. foetus HGXPRT
  Ki: 0.49 µM
[1]
  increase in affinity for T. foetus HGXPRT (lower IC50) compared to compound Ia(1): 10 fold
[1]; with respect to guanine
  mode of inhibition of T. foetus HGXPRT: competitive inhibitor; also recorded: competitive mode of inhibition

## O=C(Nc1cccc(OCc2ccc(Cl)c(Cl)c2)c1)c1ccc2c(c1)C(=O)NC2=O [Compound Ia(12)]
[3]
  IC50: 24 µM
[2]; [4]
  IC50: 4.6 µM
[1]; [6]
  IC50: 3.5 µM
[1]
  increase in affinity for T. foetus HGXPRT (lower IC50) compared to compound Ia(1): ~5 fold

## Cc1cc(COc2ccccc2)cc(NC(=O)c2ccc3c(c2)C(=O)NC3=O)c1 [Ia(2), (4'-Phthalimido)Carboxamido-3-Methyl-5-Phenoxymethylbenzene]
[1]; [6]
  IC50: 28 µM

## O=C(Nc1cc(OCc2ccccc2)ccc1Cl)c1ccc2c(c1)C(=O)NC2=O [Ia(3), (4'-Phthalimido)Carboxamido-3-Benzyloxy-6-Chlorobenzene]
[1]; [6]
  IC50: 8 µM

## Cc1c(NC(=O)c2ccc3c(c2)C(=O)NC3=O)cccc1OCc1ccccc1 [Ia(4)]
[3]
  IC50: > 50 µM
  selectivity for T. foetus HGXPRT over human HGPRT: approximately 100 fold
[2]; [4]
  IC50: 3.9 µM
[1]; [6]
  IC50: 3 µM

## Cc1ccc(COc2cccc(NC(=O)c3ccc4c(c3)C(=O)NC4=O)c2)cc1 [Ia(6)]
[1]; [6]
  IC50: 1.7 µM
[1]
  increase in affinity for T. foetus HGXPRT (lower IC50) compared to compound Ia(1): 10 fold

## COc1cc(COc2cccc(NC(=O)c3ccc4c(c3)C(=O)NC4=O)c2)cc(OC)c1 [Ia(7)]
[1]; [6]
  IC50: 8.2 µM

## O=C(Nc1cccc(OCc2cccc(I)c2)c1)c1ccc2c(c1)C(=O)NC2=O [Ia(9)]
[1]; [6]
  IC50: 8.9 µM

## O=C(Nc1cccc(OCc2ccccc2I)c1)c1ccc2c(c1)C(=O)NC2=O [Ia(10)]
[3]
  IC50: > 50 µM
  selectivity for T. foetus HGXPRT over human HGPRT: approximately 100 fold
[2]; [4]
  IC50: 5.1 µM
[1]; [6]
  IC50: 4.3 µM

## O=C(Nc1cccc(OCc2c(Cl)cccc2Cl)c1)c1ccc2c(c1)C(=O)NC2=O [Ia(13)]
[1]; [6]
  IC50: 12.1 µM

## O=C(Nc1cccc(OCc2cc(Cl)ccc2Cl)c1)c1ccc2c(c1)C(=O)NC2=O [Ia(14)]
[1]; [6]
  IC50: 7.1 µM

## Cc1c(NC(=O)c2ccc3c(c2)C(=O)NC3=O)cccc1OCc1ccc(Br)cc1 [Ia(15)]
[1]; [6]
  IC50: 5.2 µM
[1]
  potency of combined 2-methyl / benzyl-substituted inhibitors relative to parent inhibitors: less potency

## Cc1c(NC(=O)c2ccc3c(c2)C(=O)NC3=O)cccc1OCc1ccc(Cl)c(Cl)c1 [Ia(16)]
[1]; [6]
  IC50: 9.3 µM
[1]
  potency of combined 2-methyl / benzyl-substituted inhibitors relative to parent inhibitors: less potency

## CCN(CC)S(=O)(=O)c1ccc(OC)c(NC(=O)c2ccc3c(c2)C(=O)NC3=O)c1 [Ib(1)]
[2]; [4]
  IC50: 39 µM
[1]; [6]
  IC50: 33 µM

## CN(Cc1ccccc1NC(=O)c1ccc2c(c1)C(=O)NC2=O)C1CCCCC1 [Ic(1)]
[1]; [6]
  IC50: 53 µM

## O=C(Nc1cccc2c1C(=O)NC2=O)c1ccc2c(c1)C(=O)NC2=O [Id(1)]
[1]; [5]
  IC50: 5 µM
